Legend:
[1] = tested on: THP-1 cells (cell migration caused by MCP-1); experiment: Inhibitory activity of cell migration caused by MCP-1 (microchemotaxis chamber); format: cell-based; conditions: recombinant human MCP-1 20 ng/ml, 37° C.
Protocol: Measurement of Inhibitory Activity of Cell Migration Caused by MCP-1
To evaluate the activity of the test compounds listed in the following table in inhibiting cell migration, the cell migration caused by the monocyte chemotactic protein MCP-1/MCAF was measured using human premonocyte-derived leukemia cells THP-1 (ATCCTIB203) as migrating cells and the method of FALK et al. (J. Immunol. Methods, vol. 33, pp. 239 to 247 (1980)) as follows. That is, to the upper chamber (200 μl) of a 96-well microchemotaxis chamber (made by Neuroprobe Co.) was added 2×10^6 /ml THP-1 cells (10% fetal calf serum (FCS) containing RPMI-1640 medium (made by Flow Laboratories Co.), while to the lower chamber (35 μl) was placed recombinant human MCP-1 (made by Peprotech Co.) diluted by the same solution to give a final concentration of 20 ng/ml. Between the two chambers, a polycarbonate filter (pore size 5 μm, PVP-free, made by Neuroprobe Co.) was affixed. Incubation was performed at 37° C. in the presence of 5% CO2 for 2 hours. The filter was taken out and the cells migrating to the lower surface of the filter were immobilized and stained by a DiffQuick solution (made by Kokusai Shiyaku Co.) Next, a Breedmeter (made by Molecular Device Co.) was used for measurement at a measurement wavelength of 550 nm and the mean value of three wells was found and used as an indicator of the number of migrating cells. At this time, the test compound was added to the upper chamber together with THP-1 cells in various concentrations to find the cell migration inhibitory activity. The cell migration inhibition % was found by dividing the (number of migrating cells caused by MCP-1 added to the lower chamber in the case of addition of the test compound to the upper chamber)-(number of migrating cells in the case of no test compound added to the upper chamber and no MCP-1 added to the lower chamber) by (number of migrating cells caused by MCP-1 added to the lower chamber in the case of no test compound added to the upper chamber)-(number of migrating cells in the case of no test compound added to the upper chamber and no MCP-1 added to the lower chamber).

[2] = tested on: vascular smooth muscle cells (cell migration caused by PDGF); experiment: Inhibitory activity of cell migration caused by PDGF (Transwell chamber); format: cell-based; conditions: human PDGF 10 ng/ml, 37° C., 6 hours
Protocol: Measurement of Inhibitory Activity of Cell Migration Caused by PDGF
To evaluate the activity of the test compounds listed in the following table to inhibit cell migration caused by PDGF, the migrating cells caused by human platelet derived growth factor (PDGF) were measured in the following way using the vascular smooth muscle cells derived from normal human arteries (made by Kurabo) and according to the method of MaCarthy et al. (J. Cell. Biol. 97, 772-777 (1983)). That is, a Transwell Chamber (Costar Co., registered trademark) was used to measure the inhibitory action. The chamber was divided into two layers, upper and lower, by a 8 μm pore size membrane filter (PVP-free polycarbonate filter, Nucleopore Co., registered trademark). […] The cells on the upper surface of the filter were removed by wiping with a cotton swab and the cells that had migrated to the lower surface of the filter were counted under a high output microscope (×200). Usually, five fields were counted per filter. […]

[3] = tested on: thickening of intima of carotid artery of rat; experiment: Thickening of intima of carotid artery of rat due to balloon catheter; format: in vivo, Male Wistar rats; conditions: 3.2 μg/rat/hr subcutaneously
Protocol: Thickening of Intima of Carotid Artery of Rat Due to Balloon Catheter
The test was performed in the following manner in accordance with the method of Crose et al. (Lab. Invest., vol. 49, p. 206, 1983). Male Wistar rats having a body weight of 300 to 350 g were used. The neck of each rat was opened under anesthesia by sodium pentobarbitol, then a balloon catheter (Fogarty, 2F) was inserted from the right external carotid artery, until the starting portion of the common carotid artery. The balloon was expanded by physiological saline to such an extent causing a light resistance, then the catheter was pulled out in that state up to the carotid artery to give trauma to the intima. This procedure was repeated three times, then the catheter was withdrawn and the external carotid artery was sewn up. After 14 days, the chest was opened under anesthesia by diethyl ether, refluxing was performed from the aorta by a Carnoa solution (methanol:chloroform:acetic acid=6:3:1), then the right common carotid artery was excised and immobilized by neutral formalin solution. The immobilized carotid artery was dyed by Elasticavan Gieson dye, then the areas of the Media and thickened portion of the Intima were measured by an image resolution device (LUZEX2D). […]

[4] = tested on: platelets (platelet aggregation); experiment: Inhibitory activity of platelet aggregation in rats; format: cell-based, Wistar rats (male); conditions: rat platelet rich plasma; 100 μM adenosine 2-phosphoric acid (5 μl) induced; 37° C.; read-out: Activity Suppressing Platelet Aggregation (Rats) IC50
Protocol: Measurement of Inhibitory Activity of Platelet Aggregation in Rats
Wistar rats (male, approximately 400 g) were made to fast for 1 day, then the entire blood was taken from the abdominal artery under anesthesia by ether. To this was added a 3.8% aqueous solution of sodium citrate in a 1/10 amount followed by immediate mixture. This was centrifuged at 1000 rpm for 10 minutes. The top layer was used as the platelet rich plasma. The bottom layer was centrifuged at 3000 rpm for 10 minutes and the top layer was used as the platelet poor plasma. The platelet rich plasma was diluted by the platelet poor plasma to give a platelet count of […]. This was used for the measurement. Note that the platelets were measured using an automatic blood cell counter MEK-4500 (Nihon Koden). The platelet aggregation was measured by measuring the turbidity using an NBS HEMATRACER 801 (M. C. Medical). 90 μl of the platelets were placed in cuvettes, then 5 μl of the different test compounds were added to give the target final concentration, then these were heated for 1 minute at 37° C., then 5 μl of an aqueous solution of 100 μM adenosine 2-phosphoric acid (M. C. Medical) was added to cause platelet aggregation. The activity inhibiting aggregation was found from the following formula: […]
Aggregation inhibiting rate (%)
={1-(maximum change in turbidity at time of addition of test compound)
.div.(maximum change in turbidity at time of no addition of test compound)}

SMILES	IC50 ([1]; Homo sapiens, THP-1, 2 h) [µM]	other results
CCCC[C@@H](C)C[C@H](O)/C=C/[C@@H]1C(SCCCCCC(=O)O)=C(C)C[C@H]1O	0.072	
CCCCCC1=C(SCCCCCC(=O)OC)[C@@H](/C=C/[C@@H](O)C[C@H](C)CCCC)[C@H](O)C1	0.45	
CCCC[C@@H](C)C[C@H](O)/C=C/[C@@H]1C(SCCCCCC(=O)OC)=C(CCC(C)(C)C)C[C@H]1O	0.6	
CCCC[C@@H](C)C[C@H](O)/C=C/[C@@H]1C(SCCCCCC(=O)OC)=C(C(=O)OC)C[C@H]1O	0.47	
COC(=O)CCCCCSC1=C(C)CCC1/C=C/[C@@H](O)Cc1ccccc1 (single isomer, unassigned)	0.015	
COC(=O)CCCCCCC1=C(C)C[C@@H](O)[C@@H]1/C=C/C(O)Cc1ccccc1 (single isomer, unassigned)	0.065	
COC(=O)COCCCSC1=C(C)C[C@@H](O)[C@@H]1/C=C/C(O)Cc1ccccc1 (single isomer, unassigned)	0.36	
COC(=O)CCCCCSC1=C(C)C[C@@H](O)[C@@H]1/C=C/C(O)Cc1ccccc1 (single isomer, unassigned) [drawing 92]		IC50 ([1]; 2 hours): 0.21 µM
COC(=O)CCCCCSC1=C(C)C[C@@H](O)[C@@H]1/C=C/C(O)Cc1ccccc1 (single isomer, unassigned) [drawing 93]		IC50 ([1]; 2 hours): 0.01 µM
COC(=O)CCCCCSC1=C(C)C[C@@H](O)[C@@H]1/C=C/C(O)Cc1ccccc1 (single isomer, unassigned) [drawing 100]		IC50 [2]: 0.081 µM
CCCC[C@@H](C)C[C@H](O)/C=C/[C@@H]1C(SCCCCCC(=O)OC)=CC[C@H]1O [Example 28, methyl (11R,12S,13E,15S,17R)-11,15-dihydroxy-17,20-dimethyl-7-thiaprosta-8,13-dienoate]		Intima/media (Average ± standard error) ([3]; 3 days before to 11 days after surgery, measured after 14 days, control 0.935 ± 0.377): 0.702 ± 0.241; Suppression Rate (intima thickening suppression rate) ([3]; (1-T/C)×100, vs control group): 25%
CCCC[C@@H](C)C[C@H](O)/C=C/[C@@H]1C(SCCCCCC(=O)OC)=CC[C@H]1O [drawing 89]	0.013	
CCCC[C@@H](C)C[C@H](O)/C=C/[C@@H]1C(SCCCCCC(=O)OC)=C(C)C[C@H]1O [drawing 103]		IC50 [4]: 4.5 µM
CCCC[C@@H](C)C[C@H](O)/C=C/[C@@H]1C(SCCCCCC(=O)OC)=CC[C@H]1O [drawing 104]		IC50 [4]: 0.76 µM
CCCC[C@@H](C)C[C@H](O)/C=C/[C@@H]1C(SCCCCCC(=O)O)=CC[C@H]1O [drawing 105]		IC50 [4]: 2.2 µM

Continued, in another order:

IC50 ([1]; Homo sapiens, THP-1, 2 h) [µM]	SMILES	other results
2.5	CCCC[C@@H](C)C[C@H](O)/C=C/[C@@H]1C(SCCCCCC(=O)OC)=C(C(F)(F)F)C[C@H]1O	
0.19	CCCC[C@@H](C)C[C@H](O)/C=C/[C@@H]1C(SCCCCCC(=O)OC)=C(C=O)C[C@H]1O	
0.21	CCCC[C@@H](C)C[C@H](O)/C=C/[C@@H]1C(SCCCCCC(=O)OC)=C(C(C)=O)C[C@H]1O	
0.38	COC(=O)CCCCCSC1=CC[C@@H](O)[C@@H]1/C=C/[C@@H](O)Cc1ccccc1	
0.12	COC(=O)CCCCCSC1=C(C)C[C@@H](O)[C@@H]1CCC(O)Cc1ccccc1 (some centres unmarked)	
0.2	COC(=O)CCCCCSC1=C(C2CC2)C[C@@H](O)[C@@H]1/C=C/C(O)Cc1ccccc1 (single isomer, unassigned)	
0.016	CC1=C(SCCCCCC(=O)O)[C@@H](/C=C/C(O)Cc2ccccc2)[C@H](O)C1 (single isomer, unassigned) [Example 34]	IC50 [2]: 0.073 µM
0.026	CCCC[C@@H](C)C[C@H](O)/C=C/[C@@H]1C(SCCCCCC(=O)OC)=C(C)C[C@H]1O [drawing 82]	
0.15	CCCC[C@@H](C)C[C@H](O)/C=C/[C@@H]1C(SCCCCCC(=O)O)=CC[C@H]1O [drawing 90]	

Source: patent publication US5990346A, “Prostaglandins and processes for production thereof” (Teijin Limited, priority 1995, dated 1999)
